Results taken from US20120142763A1, “NUCLEIC ACID DELIVERY COMPOSITIONS AND METHODS OF USE THEREOF” (THE REGENTS OF THE UNIVERSITY OF CALIFORNIA, priority 2009, published 2012).
Read-outs that look alike come from different tables or passages of the source.

Assays:
[1] = Solubility of charge-protected oligonucleotide in salt solution; type: physicochemical
[2] = test system: GFP

Substance: SEQ ID NO:23: RNAi against GFP comprising SEQ ID NO:23 having N1-U-SATE nucleotides; 21 mer charge-protected oligonucleotide (CCACUACCUGAGCACCCAGTTTUGGUGAUGGACUCGUGGGUC; contains N1-U-SATE charge-protected nucleotides, positions not given here)
- solubility in salt solution [1]: soluble in salt solution
- inhibition of expression of GFP (dose response curves) ([2]; at 24 hours): inhibition of expression of GFP
- inhibition of expression of GFP (dose response curves) ([2]; at 48 hours): inhibition of expression of GFP
